Like-named read-outs stand apart in the source and are kept apart here.
Molecular target: T1, F508delCFTR (Homo sapiens, UniProt P13569, DEL508-508)
T1 construct: expressed in transfected cells; host or cells: CFBE41o- (human lung derived epithelial cell line), doxycycline-inducible expression
Assay: Cell Surface Expression-Horse Radish Peroxidase (CSE-HRP) assay
Assay type: cell-based
Conditions: CFBE41o-F508delCFTR-HRP cells; for Maximum % activity (with co-corrector): with co-corrector (2 μM); for Maximum % activity (with co-corrector) / Maximum % activity (without co-corrector): normalized to on-plate positive control, highest concentration 20 μM
In short: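 CFBE41o- cells expressed F508delCFTR with HRP in the fourth exofacial loop, induced by 0.5 μg/mL doxycycline for 72 h at 37 °C. Compounds alone or with 2 μM co-corrector ran 18–24 h at 33 °C, 8-point 3-fold from 20 μM. Washed-cell luminol luminescence was normalized to DMSO and positive control, fitted sigmoidally for EC50 (three plates).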

[1] = test compound without co-corrector, 18-24 hours at 33° C., read-out: EC50 (without co-corrector)
[2] = with co-corrector (2 μM of 3-[(2R,4R)-4-({[1-(2,2-difluoro-1,3-benzodioxol-5-yl)cyclopropyl]carbonyl}amino)-7-methoxy-3,4-dihydro-2H-chromen-2-yl]benzoic acid), read-out: EC50 (with co-corrector)

T1 sequence (P13569 with tags, fused parts or gaps DEL508-508): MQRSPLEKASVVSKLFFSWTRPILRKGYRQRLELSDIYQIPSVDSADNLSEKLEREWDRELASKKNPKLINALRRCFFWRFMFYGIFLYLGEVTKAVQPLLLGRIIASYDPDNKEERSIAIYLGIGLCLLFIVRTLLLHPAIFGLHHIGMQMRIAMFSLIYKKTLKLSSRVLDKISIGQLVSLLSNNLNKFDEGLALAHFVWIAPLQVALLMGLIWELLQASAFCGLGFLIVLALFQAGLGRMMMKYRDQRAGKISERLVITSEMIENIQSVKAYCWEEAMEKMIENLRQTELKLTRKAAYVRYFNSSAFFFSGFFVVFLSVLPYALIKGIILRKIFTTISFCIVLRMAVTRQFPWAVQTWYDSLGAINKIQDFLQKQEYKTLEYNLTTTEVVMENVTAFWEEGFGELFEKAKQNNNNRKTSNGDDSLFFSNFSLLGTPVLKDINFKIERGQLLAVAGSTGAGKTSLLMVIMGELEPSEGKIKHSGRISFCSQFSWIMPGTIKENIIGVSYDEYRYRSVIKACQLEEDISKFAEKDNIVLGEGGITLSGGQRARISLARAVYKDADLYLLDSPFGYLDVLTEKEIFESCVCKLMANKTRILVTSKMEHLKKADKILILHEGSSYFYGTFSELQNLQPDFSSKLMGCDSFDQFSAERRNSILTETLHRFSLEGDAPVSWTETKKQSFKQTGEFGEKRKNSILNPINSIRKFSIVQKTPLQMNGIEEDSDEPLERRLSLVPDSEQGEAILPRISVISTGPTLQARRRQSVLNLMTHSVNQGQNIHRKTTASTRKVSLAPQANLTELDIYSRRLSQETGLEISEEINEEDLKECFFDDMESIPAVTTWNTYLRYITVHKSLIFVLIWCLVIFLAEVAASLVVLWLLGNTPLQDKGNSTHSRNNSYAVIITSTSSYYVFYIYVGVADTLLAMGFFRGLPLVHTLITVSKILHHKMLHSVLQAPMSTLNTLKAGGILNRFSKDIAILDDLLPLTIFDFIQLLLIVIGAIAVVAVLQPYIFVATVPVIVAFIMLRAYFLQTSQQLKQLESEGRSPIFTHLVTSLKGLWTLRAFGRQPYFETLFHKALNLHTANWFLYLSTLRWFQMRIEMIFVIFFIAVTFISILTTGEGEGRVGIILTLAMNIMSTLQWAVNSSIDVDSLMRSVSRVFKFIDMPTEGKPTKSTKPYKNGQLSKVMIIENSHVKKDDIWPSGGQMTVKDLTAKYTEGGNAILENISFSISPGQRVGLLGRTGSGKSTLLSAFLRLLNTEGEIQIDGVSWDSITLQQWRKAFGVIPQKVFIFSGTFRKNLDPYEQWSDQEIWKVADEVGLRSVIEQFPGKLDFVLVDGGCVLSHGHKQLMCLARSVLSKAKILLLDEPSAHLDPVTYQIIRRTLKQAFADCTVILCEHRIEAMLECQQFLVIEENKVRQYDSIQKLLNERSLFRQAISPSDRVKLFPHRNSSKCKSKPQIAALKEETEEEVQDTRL

SMILES | EC50 [1] | EC50 [2] | Maximum % activity (with co-corrector) | Maximum % activity (without co-corrector)
COc1ncc(C(F)(F)F)cc1CO[C@H]1[C@H](C(C)(C)C)[C@@H](C(=O)O)N(C(=O)[C@@H]2CCCCO2)[C@H]1c1ccccc1-c1ccccc1C [Example 195, (2S,3R,4S,5S)-3-tert-butyl-4-{[2-methoxy-5-(trifluoromethyl)pyridin-3-yl]methoxy}-5-(2′-methyl[1,1′-biphenyl]-2-yl)-1-[(2S)-oxane-2-carbonyl]pyrrolidine-2-carboxylic acid] | 1000 to 10000 nM | 1000 to 10000 nM | +++ (≥350) | +++ (≥200)
COc1ncc(C(F)(F)F)cc1CO[C@H]1[C@H](C(C)(C)C)[C@@H](C(=O)O)N(C(=O)[C@@H]2CCCCO2)[C@H]1c1ccccc1-c1ccncc1 [Example 196, (2S,3R,4S,5S)-3-tert-butyl-4-{[2-methoxy-5-(trifluoromethyl)pyridin-3-yl]methoxy}-1-[(2S)-oxane-2-carbonyl]-5-[2-(pyridin-4-yl)phenyl]pyrrolidine-2-carboxylic acid] | 1000 to 10000 nM | 1000 to 10000 nM | +++ (≥350) | ++ (≥100 and <200)
COc1ncc(C(F)(F)F)cc1CO[C@H]1[C@H](C(C)(C)C)[C@@H](C(=O)O)N(C(=O)[C@@H]2CCCCO2)[C@H]1c1ccccc1-c1cncnc1 [Example 197, (2S,3R,4S,5S)-3-tert-butyl-4-{[2-methoxy-5-(trifluoromethyl)pyridin-3-yl]methoxy}-1-[(2S)-oxane-2-carbonyl]-5-[2-(pyrimidin-5-yl)phenyl]pyrrolidine-2-carboxylic acid] | 1000 to 10000 nM | 1000 to 10000 nM | ++ (≥150 and <350) | + (<100)
COc1ncc(C(F)(F)F)cc1CO[C@H]1[C@H](C(C)(C)C)[C@@H](C(=O)O)N(C(=O)[C@@H]2CCCCO2)[C@H]1c1ccccc1-c1ccoc1 [Example 198, (2S,3R,4S,5S)-3-tert-butyl-5-[2-(furan-3-yl)phenyl]-4-{[2-methoxy-5-(trifluoromethyl)pyridin-3-yl]methoxy}-1-[(2S)-oxane-2-carbonyl]pyrrolidine-2-carboxylic acid] | 1000 to 10000 nM | 1000 to 10000 nM | +++ (≥350) | +++ (≥200)
COc1ncc(C(F)(F)F)cc1CO[C@H]1[C@H](C(C)(C)C)[C@@H](C(=O)O)N(C(=O)[C@@H]2CCCCO2)[C@H]1c1ccccc1-c1ccn(C)c1 [Example 199, (2S,3R,4S,5S)-3-tert-butyl-4-{[2-methoxy-5-(trifluoromethyl)pyridin-3-yl]methoxy}-5-[2-(1-methyl-1H-pyrrol-3-yl)phenyl]-1-[(2S)-oxane-2-carbonyl]pyrrolidine-2-carboxylic acid] | 1000 to 10000 nM | 1000 to 10000 nM | +++ (≥350) | +++ (≥200)
COc1ncc(C(F)(F)F)cc1CO[C@H]1[C@H](C(C)(C)C)[C@@H](C(=O)O)N(C(=O)[C@@H]2CCCCO2)[C@H]1c1ccccc1-c1ccccc1Cl [Example 200, (2S,3R,4S,5S)-3-tert-butyl-5-(2′-chloro[1,1′-biphenyl]-2-yl)-4-{[2-methoxy-5-(trifluoromethyl)pyridin-3-yl]methoxy}-1-[(2S)-oxane-2-carbonyl]pyrrolidine-2-carboxylic acid] | 1000 to 10000 nM | < 1000 nM | +++ (≥350) | +++ (≥200)
COc1ncc(C(F)(F)F)cc1CO[C@H]1[C@H](C(C)(C)C)[C@@H](C(=O)O)N(C(=O)[C@@H]2CCCCO2)[C@H]1c1ccccc1-c1cccc(OC(F)(F)F)c1 [Example 201, (2S,3R,4S,5S)-3-tert-butyl-4-{[2-methoxy-5-(trifluoromethyl)pyridin-3-yl]methoxy}-1-[(2S)-oxane-2-carbonyl]-5-[3′-(trifluoromethoxy) [1,1′-biphenyl]-2-yl]pyrrolidine-2-carboxylic acid] | 1000 to 10000 nM | 1000 to 10000 nM | +++ (≥350) | +++ (≥200)
COc1ncc(C(F)(F)F)cc1CO[C@H]1[C@H](C(C)(C)C)[C@@H](C(=O)O)N(C(=O)[C@@H]2CCCCO2)[C@H]1c1ccccc1-c1ccc(Cl)cc1 [Example 202, (2S,3R,4S,5S)-3-tert-butyl-5-(4′-chloro[1,1′-biphenyl]-2-yl)-4-{[2-methoxy-5-(trifluoromethyl)pyridin-3-yl]methoxy}-1-[(2S)-oxane-2-carbonyl]pyrrolidine-2-carboxylic acid] | 1000 to 10000 nM | 1000 to 10000 nM | +++ (≥350) | +++ (≥200)
COc1ncc(C(F)(F)F)cc1CO[C@H]1[C@H](C(C)(C)C)[C@@H](C(=O)O)N(C(=O)[C@@H]2CCCCO2)[C@H]1c1ccccc1-c1ccc2c(c1)OCO2 [Example 203, (2S,3R,4S,5S)-5-[2-(2H-1,3-benzodioxol-5-yl)phenyl]-3-tert-butyl-4-{[2-methoxy-5-(trifluoromethyl)pyridin-3-yl]methoxy}-1-[(2S)-oxane-2-carbonyl]pyrrolidine-2-carboxylic acid] | 1000 to 10000 nM | 1000 to 10000 nM | +++ (≥350) | +++ (≥200)
COc1ncc(C(F)(F)F)cc1CO[C@H]1[C@H](C(C)(C)C)[C@@H](C(=O)O)N(C(=O)[C@@H]2CCCCO2)[C@H]1c1ccccc1-c1ccccc1F [Example 204, (2S,3R,4S,5S)-3-tert-butyl-5-(2′-fluoro[1,1′-biphenyl]-2-yl)-4-{[2-methoxy-5-(trifluoromethyl)pyridin-3-yl]methoxy}-1-[(2S)-oxane-2-carbonyl]pyrrolidine-2-carboxylic acid] | 1000 to 10000 nM | < 1000 nM | +++ (≥350) | +++ (≥200)
COc1ccc(-c2ccccc2[C@H]2[C@@H](OCc3cc(C(F)(F)F)cnc3OC)[C@H](C(C)(C)C)[C@@H](C(=O)O)N2C(=O)[C@@H]2CCCCO2)cn1 [Example 205, (2S,3R,4S,5S)-3-tert-butyl-5-[2-(6-methoxypyridin-3-yl)phenyl]-4-{[2-methoxy-5-(trifluoromethyl)pyridin-3-yl]methoxy}-1-[(2S)-oxane-2-carbonyl]pyrrolidine-2-carboxylic acid] | 1000 to 10000 nM | 1000 to 10000 nM | +++ (≥350) | ++ (≥100 and <200)
COc1ncc(C(F)(F)F)cc1CO[C@H]1[C@H](C(C)(C)C)[C@@H](C(=O)O)N(C(=O)[C@@H]2CCCCO2)[C@H]1c1ccccc1-c1ccc(OC(F)(F)F)cc1 [Example 206, (2S,3R,4S,5S)-3-tert-butyl-4-{[2-methoxy-5-(trifluoromethyl)pyridin-3-yl]methoxy}-1-[(2S)-oxane-2-carbonyl]-5-[4′-(trifluoromethoxy) [1,1′-biphenyl]-2-yl]pyrrolidine-2-carboxylic acid] | 1000 to 10000 nM | 1000 to 10000 nM | +++ (≥350) | +++ (≥200)
COc1ncc(C(F)(F)F)cc1CO[C@H]1[C@H](C(C)(C)C)[C@@H](C(=O)O)N(C(=O)[C@@H]2CCCCO2)[C@H]1c1ccccc1-c1ccc(C#N)cc1 [Example 207, (2S,3R,4S,5S)-3-tert-butyl-5-(4′-cyano[1,1′-biphenyl]-2-yl)-4-{[2-methoxy-5-(trifluoromethyl)pyridin-3-yl]methoxy}-1-[(2S)-oxane-2-carbonyl]pyrrolidine-2-carboxylic acid] | 1000 to 10000 nM | 1000 to 10000 nM | +++ (≥350) | ++ (≥100 and <200)
COc1ncc(C(F)(F)F)cc1CO[C@H]1[C@H](C(C)(C)C)[C@@H](C(=O)O)N(C(=O)[C@@H]2CCCCO2)[C@H]1c1ccccc1-c1ccc(C(F)(F)F)nc1 [Example 208, (2S,3R,4S,5S)-3-tert-butyl-4-{[2-methoxy-5-(trifluoromethyl)pyridin-3-yl]methoxy}-1-[(2S)-oxane-2-carbonyl]-5-{2-[6-(trifluoromethyl)pyridin-3-yl]phenyl}pyrrolidine-2-carboxylic acid] | 1000 to 10000 nM | 1000 to 10000 nM | +++ (≥350) | +++ (≥200)
CCOc1cncc(-c2ccccc2[C@H]2[C@@H](OCc3cc(C(F)(F)F)cnc3OC)[C@H](C(C)(C)C)[C@@H](C(=O)O)N2C(=O)[C@@H]2CCCCO2)c1 [Example 209, (2S,3R,4S,5S)-3-tert-butyl-5-[2-(5-ethoxypyridin-3-yl)phenyl]-4-{[2-methoxy-5-(trifluoromethyl)pyridin-3-yl]methoxy}-1-[(2S)-oxane-2-carbonyl]pyrrolidine-2-carboxylic acid] | 1000 to 10000 nM | 1000 to 10000 nM | +++ (≥350) | ++ (≥100 and <200)
COc1ccc(C(C)(C)C)cc1CO[C@H]1[C@H](C(C)(C)C)[C@@H](C(=O)O)N(C(=O)[C@@H]2CCCCO2)[C@H]1c1cccc2ccccc12 [Example 211, (2S,3R,4S,5S)-3-tert-butyl-4-[(5-tert-butyl-2-methoxyphenyl)methoxy]-5-(naphthalen-1-yl)-1-[(2S)-oxane-2-carbonyl]pyrrolidine-2-carboxylic acid] | 1000 to 10000 nM | < 1000 nM | +++ (≥350) | +++ (≥200)
